Values quoted from earlier work as cited in patent US10449180B2, “Macrolide particulates, methods for preparation, and medical devices associated therewith” (Surmodics, Inc., priority 2013, dated 2019).

## CO[C@H]1C[C@@H]2CC[C@@H](C)[C@@](O)(O2)C(=O)C(=O)N2CCCC[C@H]2C(=O)O[C@H]([C@H](C)C[C@@H]2CC[C@@H](O)[C@H](OC)C2)CC(=O)[C@H](C)/C=C(\C)[C@@H](O)[C@@H](OC)C(=O)[C@H](C)C[C@H](C)/C=C/C=C/C=C/1C [Rapamycin, rapamycin]
N,N-dimethylformamide
  solubility in N,N-dimethylformamide: soluble
acetone
  solubility in acetone: soluble
ether
  solubility in ether: soluble
water
  solubility in water: insoluble
